The text below walks through data of paper PMC8878140, “Inhibitory Effects of Nitrogenous Metabolites from a Marine-Derived Streptomyces bacillaris on Isocitrate Lyase of Candida albicans” (Marine Drugs, 2022).

Test [1] concerns the target T1, isocitrate lyase (ICL) (Candida albicans, UniProt Q9P8Q7).
T1 construct: gene ICL1; purified recombinant ICL
The experiment in a line: biochemical.

Test [2] addresses T1, isocitrate lyase (ICL). The experiment in a line: enzyme assay, absorbance at […] nm (phenylhydrazine); Lineweaver-Burk and Dixon plots. It counts as biochemical.

Usually IC50 stands for the concentration that gives 50% inhibition.

SMILES strings stand for the structures.

T1 sequence (Q9P8Q7 whole entry): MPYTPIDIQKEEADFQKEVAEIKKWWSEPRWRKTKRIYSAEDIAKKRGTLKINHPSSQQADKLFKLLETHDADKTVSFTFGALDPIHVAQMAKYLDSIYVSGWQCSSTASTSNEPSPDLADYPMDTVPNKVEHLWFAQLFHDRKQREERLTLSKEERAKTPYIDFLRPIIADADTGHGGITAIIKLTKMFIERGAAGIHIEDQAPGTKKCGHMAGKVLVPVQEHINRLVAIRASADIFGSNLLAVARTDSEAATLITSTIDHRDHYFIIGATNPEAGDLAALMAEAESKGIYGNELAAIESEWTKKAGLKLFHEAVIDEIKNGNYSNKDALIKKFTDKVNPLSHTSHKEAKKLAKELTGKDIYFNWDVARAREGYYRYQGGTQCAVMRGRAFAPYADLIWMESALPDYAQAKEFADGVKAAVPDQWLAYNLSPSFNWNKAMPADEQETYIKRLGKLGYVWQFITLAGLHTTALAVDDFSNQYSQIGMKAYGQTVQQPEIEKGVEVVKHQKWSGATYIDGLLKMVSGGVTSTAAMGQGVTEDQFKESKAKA

On isocitrate lyase (ICL) [1], `O=C(O)CC[N+](=O)[O-]` [3-nitropropionate, reference compound] gave an IC50 of 21.5 µM. Compound `CS[C@]12CC[C@H](O)[C@H]1C(=O)NC2=O` [compound 1, bacillimide] displayed an IC50 at isocitrate lyase (ICL) [2] of 44.2 µM. Regarding `C[S+]([O-])CCNC(=O)c1ccc[nH]1` (stereo not drawn) [compound 2, N-(2-(methylsulfinyl)ethyl)-1H-pyrrole-2-carboxamide], the IC50 at isocitrate lyase (ICL) [1] (read-out: ICL IC50) came to 190 µM.
